Where “and” joins values, the source holds several entries; their conditions need not be identical. Identical values can stand only once. Inconclusive results and toxic doses are left out. Rule as the data show it: active = T/C of 150% or more; inactive = T/C below 125%.
System: L1210 leukemia ip in BDF1 mice, survival T/C
Assay: NCI In Vivo Anticancer Drug Screen. Data for tumor model L1210 Leukemia (intraperitoneal) in B6D2F1 (BDF1) mice
Settings: endpoint: mean survival time, higher = longer survival
Summary of the method: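 Each compound was tested against a transplantable tumor grown in mice. The endpoint was survival, with treated animals benchmarked against vehicle controls as a simple ratio.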

[1] = dose: 25.0 mg/kg/injection, schedule: Q04DX003 (ip), vehicle: saline
[2] = dose: 100.0 mg/kg/injection, schedule: Q04DX003 (ip), vehicle: saline
[3] = dose: 100.0 mg/kg/injection, schedule: Q01DX001 (ip), vehicle: saline
[4] = dose: 200.0 mg/kg/injection, schedule: Q01DX001 (ip), vehicle: saline
[5] = dose: 100.0 mg/kg/injection, schedule: Q04DX002 (ip), vehicle: saline
[6] = dose: 100.0 mg/kg/injection, schedule: Q04DX003 (ip), vehicle: Klucel (hydroxypropylcellulose) (HPC)
[7] = dose: 200.0 mg/kg/injection, schedule: Q04DX003 (ip), vehicle: Klucel (hydroxypropylcellulose) (HPC)
[8] = dose: 400.0 mg/kg/injection, schedule: Q04DX003 (ip), vehicle: Klucel (hydroxypropylcellulose) (HPC)
[9] = dose: 100.0 mg/kg/injection, schedule: Q04DX002 (ip), vehicle: saline with Tween-80
[10] = dose: 200.0 mg/kg/injection, schedule: Q04DX002 (ip), vehicle: saline with Tween-80
[11] = dose: 100.0 mg/kg/injection, schedule: Q01DX001 (ip), vehicle: Klucel (hydroxypropylcellulose) (HPC)
[12] = dose: 100.0 mg/kg/injection, schedule: Q01DX009 (ip), vehicle: Klucel (hydroxypropylcellulose) (HPC)
[13] = dose: 200.0 mg/kg/injection, schedule: Q01DX001 (ip), vehicle: Klucel (hydroxypropylcellulose) (HPC)
[14] = dose: 200.0 mg/kg/injection, schedule: Q01DX009 (ip), vehicle: Klucel (hydroxypropylcellulose) (HPC)
[15] = dose: 400.0 mg/kg/injection, schedule: Q01DX001 (ip), vehicle: Klucel (hydroxypropylcellulose) (HPC)
[16] = dose: 400.0 mg/kg/injection, schedule: Q01DX009 (ip), vehicle: Klucel (hydroxypropylcellulose) (HPC)
[17] = dose: 75.0 mg/kg/injection, schedule: Q01DX001 (ip), vehicle: saline
[18] = dose: 150.0 mg/kg/injection, schedule: Q01DX001 (ip), vehicle: saline

Measured: T/C

CC(c1ccccc1)[As](C)(=O)O (stereo not drawn)
inactive: [1] 102 % of control | dose: 50.0 mg/kg/injection, schedule: Q04DX003 (ip), vehicle: saline 100 % of control | [2] 122 % of control

CCC(CC)(COC(C)=O)C[N+](C)(C)C
inactive: [3] 103 % of control | [2] 94 % of control | [4] 95 % of control | dose: 200.0 mg/kg/injection, schedule: Q04DX003 (ip), vehicle: saline 102 % of control

O=S(=O)(Nc1cc(C(F)(F)F)ccc1Cl)c1ccc(Cl)cc1
inactive: [5] 90 % of control | dose: 200.0 mg/kg/injection, schedule: Q04DX002 (ip), vehicle: saline 106 % of control | dose: 400.0 mg/kg/injection, schedule: Q04DX002 (ip), vehicle: saline 97 % of control

CNC(=O)NCC1OC(OC)C(O)C(O)C1O (stereo not drawn)
inactive: [6] 100 % of control | [7] 107 % of control | [8] 100 % of control

O=C(N/N=C\c1ccccc1C(=O)O)c1ccco1
inactive: dose: 100.0 mg/kg/injection, schedule: Q01DX001 (ip), vehicle: other 87 % of control | dose: 200.0 mg/kg/injection, schedule: Q01DX001 (ip), vehicle: other 93 % of control | dose: 400.0 mg/kg/injection, schedule: Q01DX001 (ip), vehicle: other 90 % of control

COc1ccc(NC(=O)Oc2c(C(C)C)cccc2C(C)C)cc1
inactive: [6] 100 % of control | [7] 96 % of control | [8] 92 % of control

CC(=O)NCC(O)C(O)C(/C=N/Nc1ccccc1)=N/Nc1ccccc1 (stereo not drawn)
inactive: dose: 50.0 mg/kg/injection, schedule: Q04DX002 (ip), vehicle: saline with Tween-80 91 % of control | [9] 87 % of control | [10] 95 % of control

CC(=O)Nc1cc2c(cc1Cl)-c1ccccc1C2Br (stereo not drawn)
inactive: [6] 96 % of control | [7] 94 % of control | [8] 96 % of control

CCOC(CCl)[N+](C)(C)C (stereo not drawn)
inactive: [5] 91 % of control

Cc1ccc(NC(=O)c2cccc(F)c2)cc1Cl
inactive: [11] 97 % of control | [12] 94 % of control and 92 % of control | dose: 100.0 mg/kg/injection, schedule: Q04DX002 (ip), vehicle: Klucel (hydroxypropylcellulose) (HPC) 101 % of control and 104 % of control | [13] 100 % of control | [14] 105 % of control and 92 % of control | dose: 200.0 mg/kg/injection, schedule: Q04DX002 (ip), vehicle: Klucel (hydroxypropylcellulose) (HPC) 96 % of control and 104 % of control | [15] 100 % of control | [16] 97 % of control and 92 % of control | dose: 400.0 mg/kg/injection, schedule: Q04DX002 (ip), vehicle: Klucel (hydroxypropylcellulose) (HPC) 104 % of control and 109 % of control

COc1ccc(Cl)cc1N=Cc1cccc([N+](=O)[O-])c1
inactive: [12] 102 % of control | [14] 94 % of control | [16] 94 % of control

COc1ccc(CC[n+]2cccc(C(C)=O)c2)cc1OC
inactive: [17] 103 % of control | [18] 106 % of control | dose: 300.0 mg/kg/injection, schedule: Q01DX001 (ip), vehicle: saline 113 % of control

c1ccc(C2NC2c2ccccc2)cc1 (stereo not drawn)
inactive: dose: 50.0 mg/kg/injection, schedule: Q01DX001 (ip), vehicle: carboxymethylcellulose (CMC) 112 % of control | dose: 100.0 mg/kg/injection, schedule: Q01DX001 (ip), vehicle: carboxymethylcellulose (CMC) 97 % of control | [6] 103 % of control | dose: 200.0 mg/kg/injection, schedule: Q01DX001 (ip), vehicle: carboxymethylcellulose (CMC) 97 % of control | [7] 95 % of control | [8] 91 % of control

O=C(/C=C/c1ccccc1)C1(c2ccccc2)CC1
inactive: [11] 98 % of control | [13] 100 % of control | [15] 98 % of control

COc1cc2c3c(c1)/C(=N\Nc1ccccc1)CCN3CCC2
inactive: dose: 6.25 mg/kg/injection, schedule: Q01DX009 (ip), vehicle: DMSO 90 % of control | dose: 12.5 mg/kg/injection, schedule: Q01DX009 (ip), vehicle: DMSO 91 % of control | dose: 25.0 mg/kg/injection, schedule: Q01DX009 (ip), vehicle: DMSO 93 % of control and 90 % of control | dose: 25.0 mg/kg/injection, schedule: Q04DX003 (ip), vehicle: DMSO 95 % of control | dose: 50.0 mg/kg/injection, schedule: Q04DX003 (ip), vehicle: DMSO 95 % of control | dose: 100.0 mg/kg/injection, schedule: Q04DX003 (ip), vehicle: DMSO 100 % of control | dose: 200.0 mg/kg/injection, schedule: Q04DX003 (ip), vehicle: gum acacia 92 % of control

COc1cccc(N2C(=O)CC(=P(c3ccccc3)(c3ccccc3)c3ccccc3)C2=O)c1
inactive: [17] 96 % of control | [18] 95 % of control

Cc1ccc(S(=O)(=O)O)cn1
inactive: [3] 94 % of control | [4] 97 % of control | dose: 400.0 mg/kg/injection, schedule: Q01DX001 (ip), vehicle: saline 92 % of control

CCCC(=O)NC1CCC(CC2CCCCC2)CC1 (stereo not drawn)
inactive: dose: 50.0 mg/kg/injection, schedule: Q01DX009 (ip), vehicle: other 92 % of control | dose: 100.0 mg/kg/injection, schedule: Q01DX009 (ip), vehicle: other 106 % of control | dose: 100.0 mg/kg/injection, schedule: Q04DX003 (ip), vehicle: other 100 % of control | dose: 200.0 mg/kg/injection, schedule: Q01DX009 (ip), vehicle: other 98 % of control | dose: 200.0 mg/kg/injection, schedule: Q04DX003 (ip), vehicle: other 100 % of control

CCCCS(=O)c1nc2ccccc2s1 (stereo not drawn)
inactive: dose: 100.0 mg/kg/injection, schedule: Q04DX002 (ip), vehicle: other 88 % of control | dose: 200.0 mg/kg/injection, schedule: Q04DX002 (ip), vehicle: other 91 % of control

O=c1cc(NCc2cccc3ccc(Cl)cc23)[nH]c(=O)[nH]1
inactive: dose: 50.0 mg/kg/injection, schedule: Q01DX001 (ip), vehicle: Klucel (hydroxypropylcellulose) (HPC) 92 % of control | [11] 88 % of control | [13] 87 % of control

COc1ccc([I+]c2ccccc2)cc1
inactive: dose: 6.25 mg/kg/injection, schedule: Q04DX003 (ip), vehicle: saline 98 % of control | dose: 9.0 mg/kg/injection, schedule: Q01DX009 (ip), vehicle: saline 104 % of control | dose: 12.5 mg/kg/injection, schedule: Q04DX003 (ip), vehicle: saline 101 % of control | dose: 25.0 mg/kg/injection, schedule: Q01DX001 (ip), vehicle: saline with Tween-80 102 % of control | dose: 25.0 mg/kg/injection, schedule: Q01DX009 (ip), vehicle: saline with Tween-80 102 % of control | dose: 25.0 mg/kg/injection, schedule: Q04DX003 (ip), vehicle: saline with Tween-80 98 % of control | [1] 109 % of control | dose: 36.0 mg/kg/injection, schedule: Q04DX003 (ip), vehicle: saline 95 % of control | dose: 50.0 mg/kg/injection, schedule: Q01DX001 (ip), vehicle: saline with Tween-80 102 % of control | dose: 50.0 mg/kg/injection, schedule: Q01DX009 (ip), vehicle: saline with Tween-80 111 % of control | dose: 50.0 mg/kg/injection, schedule: Q04DX003 (ip), vehicle: saline with Tween-80 93 % of control | dose: 100.0 mg/kg/injection, schedule: Q01DX001 (ip), vehicle: saline with Tween-80 98 % of control | dose: 100.0 mg/kg/injection, schedule: Q01DX009 (ip), vehicle: saline with Tween-80 105 % of control | dose: 100.0 mg/kg/injection, schedule: Q04DX003 (ip), vehicle: saline with Tween-80 97 % of control

CC1=CC=CC(C)(Cc2ccc(-c3ccc(CC4(C)C=CC=C(C)C4=O)cc3)cc2)C1=O (stereo not drawn)
inactive: dose: 100.0 mg/kg/injection, schedule: Q01DX001 (ip), vehicle: saline sonified 92 % of control | dose: 200.0 mg/kg/injection, schedule: Q01DX001 (ip), vehicle: saline sonified 90 % of control | dose: 400.0 mg/kg/injection, schedule: Q01DX001 (ip), vehicle: saline sonified 95 % of control

COC1CCC(/C=C(\C#N)C2CCC(C)CC2)CC1 (stereo not drawn)
inactive: [9] 94 % of control | [10] 97 % of control | dose: 400.0 mg/kg/injection, schedule: Q04DX002 (ip), vehicle: saline with Tween-80 94 % of control

CCSC(=O)N1C=Cc2ccccc2C1C#N (stereo not drawn)
inactive: [11] 95 % of control | [12] 95 % of control | [13] 90 % of control | [14] 95 % of control | [15] 101 % of control | [16] 108 % of control

— PubChem BioAssay AID248 (DTP/NCI, 2004)
